Assay results as given in patent US10828317B2, “Method of treating bacterial infections” (priority 2016, dated 2020).
Values joined by “and” are separate entries in the source; they are usually repeats but may differ in a detail not shown here. Equal entries are not always repeated. Where two headings read alike, the source gives them in different places.

Assays:
S. aureus EN008 = assay: MIC, Gram-positive control; format: cell-based, Staphylococcus aureus; settings: Staphylococcus aureus, read-out: MIC
K. pneumoniae EN0436 = assay: MIC, colistinR; format: cell-based; settings: Klebsiella pneumoniae, read-out: MIC
E. coli EN0138 = assay: MIC, ESBL (CTX-M-9); format: cell-based; settings: Escherichia coli, EN0138, combination AZT+trimethoprim+uridine, Table 17B; read-out: MIC
S. typhimurium EN0466 = assay: MIC; format: cell-based; settings: Salmonella enterica
E. coli EN003 = assay: microbe, parasite or virus in culture; format: cell-based, Escherichia coli; settings: Escherichia coli, EN003, combination didanosine+trimethoprim+uridine, Table 10
K. pneumoniae EN0437 = assay: MIC, colistinR; format: cell-based; settings: Klebsiella pneumoniae, read-out: MIC
K. pneumoniae EN0142 = assay: MIC, OXA-48, CTX-M-15; format: cell-based; settings: Klebsiella pneumoniae, EN0142, combination didanosine+trimethoprim+uridine, Table 20
K. pneumoniae EN0140 = assay: MIC, AmpC (DHA-1); format: cell-based; settings: Klebsiella pneumoniae, read-out: MIC
K. pneumoniae EN0262 = assay: MIC, ESBL (+), KPC+; format: cell-based
K. pneumoniae EN0233 = assay: MIC; format: cell-based; settings: Klebsiella pneumoniae, read-out: MIC
K. pneumoniae EN0143 = assay: MIC, ESBL (SHV-12); format: cell-based; settings: Klebsiella pneumoniae, read-out: MIC
E. coli strain no 2 = assay: MIC vs E. coli LMG 15862, penicillin resistant; settings: Escherichia coli
K. oxytoca EN0392 = assay: MIC; format: cell-based; settings: Klebsiella oxytoca
E. coli = assay: Murine peritonitis model; format: in vivo, mice; set-up: score at sampling: scale not given here
[1] = tested on: Helicobacter pylori APV00918; assay: MIC; format: cell-based; settings: Helicobacter pylori, APV00918, combination FdUrd+trimethoprim+uridine, Table 22A
Text: (§1) Inhibition of Heliobacter is important in view of increasing resistance and its association to gastric cancer.

K. pneumoniae EN010 = assay: MIC, WT; format: cell-based, Klebsiella pneumoniae; settings: Klebsiella pneumoniae, read-out: MIC
[2] = Infusion of 1-12 g/sq. m., Leyva et al, 1984; cited from earlier work
S. flexneri APV00906 = assay: microbe, parasite or virus in culture; format: cell-based; settings: Shigella flexneri, APV00906
Text: as §1

[3] = tested on: Helicobacter pylori ATTC43504; assay: MIC; format: cell-based; settings: Helicobacter pylori, Table 22A, read-out: MIC
Text: as §1

[4] = EN008, Combination 2 AZT+trimethoprim+uridine+thymidine, Table 16
[5] = EN008, combination FdUrd+trimethoprim+uridine, Table 8
[6] = Combination 1 AZT+trimethoprim+uridine, Table 16
[7] = combination AZT+trimethoprim+uridine, Table 6
[8] = combination FdUrd+trimethoprim+uridine, Table 8
[9] = EN0140, combination didanosine+trimethoprim+uridine, Table 20
[10] = EN0392, Combination 1 AZT+trimethoprim+uridine, Table 16
[11] = EN0392, combination AZT+trimethoprim+uridine, Table 6
[12] = EN0392, combination FdUrd+trimethoprim+uridine, Table 8
[13] = Trimethoprim 30 mg/kg, per mouse

## COc1cc(Cc2cnc(N)nc2N)cc(OC)c1OC [Trimethoprim, trimethoprim]
S. aureus EN008; EN008, Combination 1 AZT+trimethoprim+uridine, Table 16
  MIC: 1 µg/mL
S. aureus EN008; [4]
  MIC: > 4 µg/mL
S. aureus EN008; EN008, combination AZT+trimethoprim+uridine, Table 6
  MIC: 1 µg/mL
S. aureus EN008; [5]
  MIC: < 0.016 µg/mL
S. aureus EN008; EN008, combination didanosine+trimethoprim+uridine, Table 10
  MIC: 1 µg/mL
K. pneumoniae EN0436; EN0436, combination FdUrd+trimethoprim+uridine, Table 19
  MIC: 0.5 µg/mL
K. pneumoniae EN0436; EN0436, combination didanosine+trimethoprim+uridine, Table 20
  MIC: 0.5 µg/mL
E. coli EN0138
  MIC: 0.016 µg/mL
S. typhimurium EN0466; [6]
  MIC: 0.064 µg/mL
S. typhimurium EN0466; Combination 2 AZT+trimethoprim+uridine+thymidine, Table 16
  MIC: 0.5 µg/mL
S. typhimurium EN0466; [7]
  MIC: 0.06 µg/mL
S. typhimurium EN0466; [8]
  MIC: 0.25 µg/mL
S. typhimurium EN0466; combination didanosine+trimethoprim+uridine, Table 10
  MIC: 0.5 µg/mL
E. coli EN003
  MIC: 0.064 µg/mL
K. pneumoniae EN0437; EN0437, combination AZT+trimethoprim+uridine, Table 17B
  MIC: > 4 µg/mL
K. pneumoniae EN0437; EN0437, combination FdUrd+trimethoprim+uridine, Table 19
  MIC: > 8 µg/mL
K. pneumoniae EN0437; EN0437, combination didanosine+trimethoprim+uridine, Table 20
  MIC: > 8 µg/mL
K. pneumoniae EN0142
  MIC: > 8 µg/mL
K. pneumoniae EN0140; EN0140, combination AZT+trimethoprim+uridine, Table 17B
  MIC: 1 µg/mL
K. pneumoniae EN0140; EN0140, combination FdUrd+trimethoprim+uridine, Table 19
  MIC: > 8 µg/mL
K. pneumoniae EN0140; [9]
  MIC: > 8 µg/mL
K. pneumoniae EN0262; Klebsiella pneumoniae, EN0262, combination AZT+trimethoprim+uridine, Table 17B and 18, read-out: MIC
  MIC: 0.5 µg/mL
K. pneumoniae EN0262; Klebsiella pneumoniae, EN0262, combination FdUrd+trimethoprim+uridine, Table 19 and 21, read-out: MIC
  MIC: 4 µg/mL
K. pneumoniae EN0262; Klebsiella pneumoniae, EN0262, combination didanosine+trimethoprim+uridine, Table 20 and 21, read-out: MIC
  MIC: 4 µg/mL
K. pneumoniae EN0262; combination AZT+trimethoprim+uridine, Table 17B and 18
  MIC: 0.5 µg/mL
K. pneumoniae EN0262; combination FdUrd+trimethoprim+uridine, Table 19 and 21
  MIC: 4 µg/mL
K. pneumoniae EN0262; combination didanosine+trimethoprim+uridine, Table 20 and 21
  MIC: 4 µg/mL
K. pneumoniae EN0233; EN0233, combination FdUrd+trimethoprim+uridine, Table 19
  MIC: 1 µg/mL
K. pneumoniae EN0233; EN0233, combination didanosine+trimethoprim+uridine, Table 20
  MIC: 2 µg/mL
K. pneumoniae EN0143; EN0143, combination AZT+trimethoprim+uridine, Table 17B
  MIC: > 4 µg/mL
K. pneumoniae EN0143; EN0143, combination FdUrd+trimethoprim+uridine, Table 19
  MIC: > 8 µg/mL
K. pneumoniae EN0143; EN0143, combination didanosine+trimethoprim+uridine, Table 20
  MIC: > 8 µg/mL
E. coli strain no 2; NO2, read-out: MIC FdUrd/Trimethoprim (1:2), uridine 10 μg/ml, thymidine 10 μM
  MIC: > 40 µg/mL
E. coli strain no 2; NO2, read-out: MIC FdUrd/Trimethoprim (1:2), uridine 100 μg/ml, thymidine 10 μM
  MIC: > 40 µg/mL
K. oxytoca EN0392; [10]
  MIC: 0.064 µg/mL
K. oxytoca EN0392; EN0392, Combination 2 AZT+trimethoprim+uridine+thymidine, Table 16
  MIC: 0.5 µg/mL
K. oxytoca EN0392; [11]
  MIC: 0.06 µg/mL
K. oxytoca EN0392; [12]
  MIC: 0.25 µg/mL
K. oxytoca EN0392; EN0392, combination didanosine+trimethoprim+uridine, Table 10
  MIC: 0.5 µg/mL
E. coli; [13]
  CFU/ml PF: 9.50E+03 CFU/ml and 1.60E+06 CFU/ml and 3.25E+05 CFU/ml and 4.75E+05 CFU/ml
  log CFU/ml PF: 3.98 log CFU/ml and 6.20 log CFU/ml and 5.51 log CFU/ml and 5.68 log CFU/ml
  score at sampling: 1
E. coli; murine peritonitis model
  inhibition in mice infected with E. coli (in words): slight inhibition
[1]
  MIC: 0.125 µg/mL
K. pneumoniae EN010; EN010, Combination 2 AZT+trimethoprim+uridine+thymidine, Table 16
  MIC: 1 µg/mL
K. pneumoniae EN010; EN010, combination AZT+trimethoprim+uridine, Table 6
  MIC: 0.5 µg/mL
K. pneumoniae EN010; EN010, combination FdUrd+trimethoprim+uridine, Table 8
  MIC: 1 µg/mL
K. pneumoniae EN010; EN010, combination didanosine+trimethoprim+uridine, Table 10
  MIC: 1 µg/mL

## O=c1ccn([C@@H]2O[C@H](CO)[C@@H](O)[C@H]2O)c(=O)[nH]1 [Uridine, uridine]
S. aureus EN008; [4]
  MIC: > 400 µg/mL
S. aureus EN008; [5]
  MIC: < 0.8 µg/mL
[2]
  plasma levels: up to 500 μg/ml
S. typhimurium EN0466; [6]
  MIC: 6.4 µg/mL
S. typhimurium EN0466; [7]
  MIC: 16 µg/mL
S. typhimurium EN0466; [8]
  MIC: 13 µg/mL
E. coli EN003
  MIC: 6 µg/mL
K. pneumoniae EN0142
  MIC: > 400 µg/mL
S. flexneri APV00906
  MIC: > 400 µg/mL
K. pneumoniae EN0140; [9]
  MIC: > 400 µg/mL
K. oxytoca EN0392; [10]
  MIC: 6.4 µg/mL
K. oxytoca EN0392; [11]
  MIC: 16 µg/mL
K. oxytoca EN0392; [12]
  MIC: 13 µg/mL
[3]; ATTC43504, combination AZT+trimethoprim+uridine
  MIC: 13 µg/mL
[3]; ATTC43504, combination FdUrd+trimethoprim+uridine
  MIC: 6 µg/mL
